Marks after values point to notes of the source that are not given here.
Assays:
TNF-α mRNA = experiment: Hepatic TNF-α mRNA expression by qPCR, CDAA/high-fat diet mouse model; assay type: in vivo; conditions: CDAA/high-fat fed mice
Description: (§1) Mice were fed either choline-sufficient (CS) or choline deficient high-fat diets (31% total calories; “CDAA/high-fat”). The NASH inducing diet was instigated 6 weeks prior to the commencement of treatment in order to design the study as a treatment/reversal set-up rather than prophylaxis.
After 6 weeks of either the CS- or CDAA diet, mice were orally administered Compound A or comparison Compound N, both at 2 doses, 0.15 mmol/kg bw/day (low-dose, LD) and 0.3 mmol/kg bw per day (high-dose, HD). The test substances were administered orally as admix to the high-fat diet. Hepatic fibrosis was assessed by both measurement of hydroxyproline (HYP) content and Sirius Red (SR) morphometry. Fibrosis, inflammation and metabolism related transcripts levels were measured by quantitative real-time polymerase chain reaction (qPCR).
(§2) Studies were performed in male C56BL/6J mice (9 weeks old). Mice were divided into 6 experimental groups (n=9 per group) containing either CS or CDAA/high-fat diets, as described above. The NASH inducing CDAA/high fat diet was instigated 6 weeks prior to the commencement of treatment in order to assess treatment/reversal rather than prophylaxis. […] Compound A was administered orally as admix to the high-fat diet whilst GLP-1 agonist was delivered via intraperitoneal injection (i.p.). Fibrosis, inflammation and metabolism related transcripts levels were measured by quantitative real-time polymerase chain reaction (qPCR) in isolated liver tissue.

MMP-13 mRNA = experiment: Hepatic MMP-13 mRNA expression by qPCR, CDAA/high-fat diet mouse model; assay type: in vivo; conditions: CDAA/high-fat fed mice; Compound A 0.3 mmol/kg bw/day oral; GLP-1a 0.4 mg/kg once weekly i.p.
Protocol: as §1, §2

TIMP-1a mRNA = experiment: Hepatic TIMP-1a mRNA expression by qPCR, CDAA/high-fat diet mouse model; assay type: in vivo; conditions: CDAA/high-fat fed mice; Compound A 0.3 mmol/kg bw/day oral; GLP-1a 0.4 mg/kg once weekly i.p.; alone or combined
Protocol: as §1, §2

ob/ob AMLN mice [1] = experiment: Plasma triglyceride and total cholesterol levels in ob/ob AMLN mice; assay type: in vivo, mouse; conditions: 8 weeks
Protocol: (§3) Obese diet-induced B6.V-Lepob/Jrj mice (ob/ob) are consistently fibrosis (liver) prone when cholesterol (2%), 40% fat (containing 18% trans-fatty acids) and 20% fructose are added to a high-caloric diet (i.e., AMLN high-fat diet). ob/ob mice on AMLN diet (termed ‘ob/ob AMLN mice’) develop steatohepatitis and fibrosis within a shorter timeframe ([…]) compared with wild-type C57BL/6 mice (AMLN mice) fed the same diet. ob/ob AMLN mice provide an obese diet-induced model of NASH that also allows the study of effects on glycemic control. Development of NASH in the ob/ob AMLN model is confirmed by biopsy.
(§4) In Biological Examples 10, 13-14, and 16-18, studies were performed in male ob/ob mice (5 weeks old) fed an AMLN high-fat diet for 18 weeks, then randomized into 6 groups (n=10 per group) to receive either Compound A (at 3 different daily doses, 45 mg/kg, 90 mg/kg or 135 mg/kg) via diet, 30 mg/kg bw per day obeticholic acid (OCA) via diet, or no treatment (vehicle) for a further 8 weeks. Assessment of NASH related parameters and fibrosis was made at study end by quantitative immune histochemistry (IHC) measurements.

[2] = tested on: α-smooth muscle actin (SMA); experiment: Hepatic α-SMA content by quantitative IHC in ob/ob AMLN mice; assay type: in vivo, mouse; conditions: 8 weeks; for α-SMA (total and % of fractional area content): vs vehicle
Protocol: as §3, §4

ob/ob AMLN mice [3] = experiment: Oral glucose tolerance test (OGTT) and glycemic control in ob/ob AMLN mice; assay type: in vivo, mouse; conditions: after 3 weeks, Compound A 112 mg/kg, pioglitazone 30 mg/kg
Protocol: as §3
In Biological Examples 10-12, 15, and 19, studies were performed in male ob/ob mice (5 weeks old) fed an AMLN high-fat diet for 15 weeks, then randomized into 3 groups (n=10 per group) to receive either 112 mg/kg bw per day of Compound A via diet, 30 mg/kg bw per day pioglitazone via diet or no treatment (vehicle) for a further 4 weeks. An oral glucose tolerance test (OGTT) was performed at week 3. Hepatic fibrosis was assessed via measurements of hepatic fibrogenic/fibrolytic gene expression by RNA sequencing at 4 weeks.
After 3 weeks of administration of Compound A (112 mg/kg), pioglitazone, or vehicle control, an oral glucose tolerance test (OGTT) was performed in ob/ob AMLN mice.

col1A1 = experiment: Hepatic col1A1 content by quantitative IHC in ob/ob AMLN mice; assay type: in vivo, mouse; conditions: 8 weeks
Protocol: as §3, §4

STAM (model) mice [4] = experiment: NAFLD activity score (NAS) in streptozotocin/high-fat diet NASH model (STAM model); assay type: in vivo, mouse; conditions: 6 weeks treatment, Compound A 37 mg/kg/day oral gavage, telmisartan positive control
Description: (§5) In Biological Example 8, pathogen-free 15-day-pregnant C57BL/6 mice were obtained from Charles River Laboratories in Japan Inc. (Kanagawa, Japan). NASH was established in male mice by a single subcutaneous injection of streptozotocin (STZ) (Sigma, USA) after birth and feeding with a high fat diet (HFD; CLEA) Japan, Japan) ad libitum after 4 weeks of age (day 28±2). Mice were randomised into 3 groups of 8 mice at 6 weeks of age the day before the start of treatment: vehicle (saline), Compound A and telmisartan (positive control). Treatment with Compound A at a dose of 37 mg/kg bw per day via oral gavage in conjunction with a high-fat diet was given for 6 weeks before sacrifice. NAFLD activity score (NAS) was calculated according to standardised criteria and fibrosis area was assessed via Sirius Red staining.

hepatic transcriptome = experiment: Hepatic transcriptome (gene expression probes) in APOE*3.CETP transgenic mice; assay type: in vivo, mouse; conditions: Compound A at a fraction of the dose of the omega-3 ethyl esters, data not shown
STAM (model) mice [5] = experiment: Fibrosis area by Sirius Red staining, STAM model; assay type: in vivo, mouse; conditions: Sirius Red positive area, 6 weeks treatment, Compound A 37 mg/kg/day oral gavage
Description: as §5

ob/ob AMLN mice [6] = experiment: Plasma ALT and AST (hepatocellular damage) in ob/ob AMLN mice; assay type: in vivo, mouse; conditions: 8 weeks
Protocol: as §3, §4
To assess the effects of Compound A and pioglitazone on hepatocellular injury or damage in ob/ob AMLN mice, plasma alanine aminotransferase (ALT) and aspartate transaminase (AST) were measured after 8 weeks of administration.

Structure (SMILES): CC/C=C\C/C=C\C/C=C\C/C=C\C/C=C\CCCCOC(CC)C(=O)O (stereo not shown) [Compound A, 2-((5Z,8Z,11Z,14Z,17Z)-icosa-5,8,11,14,17-pentaenyloxy)butanoic acid]
- TNF-α (relative mRNA expression) (TNF-α mRNA; Compound A 0.3 mmol/kg bw/day oral, GLP-1a 0.4 mg/kg once weekly i.p., alone or combined): 0.65***
- TNF-a (relative mRNA expression) (TNF-α mRNA; HD 0.3 mmol/kg bw per day): 0.65***
- TNF-a (relative mRNA expression) (TNF-α mRNA; LD 0.15 mmol/kg bw/day): 0.75***
- MMP-13 (relative mRNA expression) (MMP-13 mRNA): 1.6***
- TIMP-1a (relative mRNA expression) (TIMP-1a mRNA): 2***
- plasma total cholesterol levels (ob/ob AMLN mice [1]; Compound A 90 mg/kg): comparable reductions
- plasma triglyceride levels (ob/ob AMLN mice [1]; Compound A 90 mg/kg): comparable reductions
- plasma total cholesterol levels (ob/ob AMLN mice [1]; Compound A 135 mg/kg): comparable reductions
- plasma triglyceride levels (ob/ob AMLN mice [1]; Compound A 135 mg/kg): comparable reductions
- area percentage of α-SMA content compared to pre-treatment biopsy ([2]; Compound A 45 mg/kg): non-significant trend
- area percentage of α-SMA content compared to pre-treatment biopsy ([2]; Compound A 90 mg/kg): non-significant trend
- α-SMA (total and % of fractional area content) ([2]; Compound A 90 mg/kg): markedly reduced
- area percentage of α-SMA content compared to pre-treatment biopsy ([2]; Compound A 135 mg/kg): decreased
- α-SMA (total and % of fractional area content) ([2]; Compound A 135 mg/kg): markedly reduced
- fasting plasma glucose levels (ob/ob AMLN mice [3]): significant reductions
- glucose excursion after glucose load (AUC 0-240 mins), OGTT (ob/ob AMLN mice [3]): significantly reduced
- col1A1 content compared with pre-biopsy content (col1A1; Compound A 45 mg/kg): trend towards decreased col1A1 content
- col1A1 levels as a percentage of total surface area (col1A1; Compound A 45 mg/kg): not statistically significant
- col1A1 levels as a percentage of total surface area (col1A1; Compound A 90 mg/kg): significant reduction
- total col1A1 content (col1A1; Compound A 90 mg/kg): reduced
- col1A1 content compared with pre-biopsy content (col1A1; Compound A 90 mg/kg, decrease, p<0.005): statistically significant
- col1A1 content compared with pre-biopsy content (col1A1; Compound A 135 mg/kg): trend towards decreased col1A1 content
- col1A1 levels as a percentage of total surface area (col1A1; Compound A 135 mg/kg): not statistically significant
- total col1A1 content (col1A1; Compound A 135 mg/kg): reduced
- Hepatocellular ballooning (STAM (model) mice [4]): 1
- Lobular inflammation (STAM (model) mice [4]): 0.88
- NAS score (mean ± SD) (STAM (model) mice [4]): 2.3 ± 1.5
- Steatosis (STAM (model) mice [4]): 0.12
- gene expression probes significantly up- or down-regulated in the liver (hepatic transcriptome): > 1094
- Fibrosis area (%) (STAM (model) mice [5]): 0.79%
- plasma ALT (ob/ob AMLN mice [6]; Compound A 90 mg/kg, p<0.01): marked and significant reduction
- plasma AST (ob/ob AMLN mice [6]; Compound A 90 mg/kg, p<0.05): significantly reduced
- plasma ALT (ob/ob AMLN mice [6]; Compound A 135 mg/kg, p<0.001): marked and significant reduction
- plasma AST (ob/ob AMLN mice [6]; Compound A 135 mg/kg, p<0.01): significantly reduced

— patent publication US12440466B2, “Fatty acid derivatives for treating non-alcoholic steatohepatitis” (BASF AS, priority 2017, dated 2025)
